Measurements: paper PMC10009787 (ACS Medicinal Chemistry Letters, 2023)
Several values for one entry are separate records, joined by “and”; a condition that tells them apart may be missing. Equal values may be shown once. Entries after “also recorded” stand apart in the source; their conditions may differ. Read-outs that look alike come from different tables or passages of the source.

Experiments:
FLT3 = FLT3 (Homo sapiens, UniProt P36888); assay: SelectScreen kinase profiling; type: biochemical; settings: average of duplicate
Chain of FLT3 (P36888 27-993): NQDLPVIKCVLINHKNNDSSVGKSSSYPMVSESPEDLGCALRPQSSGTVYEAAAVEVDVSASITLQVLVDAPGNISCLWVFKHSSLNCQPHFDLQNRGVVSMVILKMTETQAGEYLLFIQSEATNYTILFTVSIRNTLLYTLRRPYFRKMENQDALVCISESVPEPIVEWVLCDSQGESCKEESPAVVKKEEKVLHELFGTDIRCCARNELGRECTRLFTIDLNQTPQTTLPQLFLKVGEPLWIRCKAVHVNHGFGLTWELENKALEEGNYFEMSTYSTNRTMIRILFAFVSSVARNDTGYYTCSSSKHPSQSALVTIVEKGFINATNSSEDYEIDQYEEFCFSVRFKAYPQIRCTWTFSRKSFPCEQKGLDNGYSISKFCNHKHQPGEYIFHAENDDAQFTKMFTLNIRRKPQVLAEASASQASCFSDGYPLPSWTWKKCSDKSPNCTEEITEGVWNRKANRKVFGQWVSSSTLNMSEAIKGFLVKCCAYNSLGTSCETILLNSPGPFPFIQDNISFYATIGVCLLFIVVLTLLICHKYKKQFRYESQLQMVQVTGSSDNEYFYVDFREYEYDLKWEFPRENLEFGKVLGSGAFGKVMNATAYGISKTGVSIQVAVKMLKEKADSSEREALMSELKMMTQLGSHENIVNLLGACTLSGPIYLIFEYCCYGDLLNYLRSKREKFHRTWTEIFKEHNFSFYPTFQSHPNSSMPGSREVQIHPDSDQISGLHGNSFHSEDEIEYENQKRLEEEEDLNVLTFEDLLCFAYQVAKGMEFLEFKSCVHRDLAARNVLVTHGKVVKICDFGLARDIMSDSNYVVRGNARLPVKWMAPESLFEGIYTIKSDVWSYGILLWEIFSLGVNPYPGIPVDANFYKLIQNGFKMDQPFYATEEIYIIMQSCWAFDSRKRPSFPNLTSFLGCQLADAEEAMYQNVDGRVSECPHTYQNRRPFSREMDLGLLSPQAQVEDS

LYN B = LYN B (Homo sapiens, UniProt P07948); assay: SelectScreen kinase profiling; type: biochemical; settings: average of duplicate
Chain of LYN B (P07948 1-491 isoform P07948-2): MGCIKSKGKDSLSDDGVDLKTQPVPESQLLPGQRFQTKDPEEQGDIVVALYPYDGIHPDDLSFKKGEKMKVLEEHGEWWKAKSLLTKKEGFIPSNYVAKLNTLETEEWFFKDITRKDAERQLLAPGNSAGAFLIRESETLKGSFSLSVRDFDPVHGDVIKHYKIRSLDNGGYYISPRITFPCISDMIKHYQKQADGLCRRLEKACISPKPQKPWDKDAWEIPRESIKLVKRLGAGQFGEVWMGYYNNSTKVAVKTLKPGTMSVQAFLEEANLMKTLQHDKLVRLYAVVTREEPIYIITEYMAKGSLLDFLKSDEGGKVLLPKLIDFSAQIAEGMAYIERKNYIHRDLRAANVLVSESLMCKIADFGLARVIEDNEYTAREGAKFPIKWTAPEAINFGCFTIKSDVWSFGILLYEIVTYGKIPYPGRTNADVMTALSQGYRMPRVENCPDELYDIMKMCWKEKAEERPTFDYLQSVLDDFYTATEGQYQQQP

TNK2 (ACK) = TNK2 (ACK) (Homo sapiens, UniProt Q07912); assay: SelectScreen kinase profiling; type: biochemical; settings: average of duplicate
Chain of TNK2 (ACK) (Q07912 whole entry): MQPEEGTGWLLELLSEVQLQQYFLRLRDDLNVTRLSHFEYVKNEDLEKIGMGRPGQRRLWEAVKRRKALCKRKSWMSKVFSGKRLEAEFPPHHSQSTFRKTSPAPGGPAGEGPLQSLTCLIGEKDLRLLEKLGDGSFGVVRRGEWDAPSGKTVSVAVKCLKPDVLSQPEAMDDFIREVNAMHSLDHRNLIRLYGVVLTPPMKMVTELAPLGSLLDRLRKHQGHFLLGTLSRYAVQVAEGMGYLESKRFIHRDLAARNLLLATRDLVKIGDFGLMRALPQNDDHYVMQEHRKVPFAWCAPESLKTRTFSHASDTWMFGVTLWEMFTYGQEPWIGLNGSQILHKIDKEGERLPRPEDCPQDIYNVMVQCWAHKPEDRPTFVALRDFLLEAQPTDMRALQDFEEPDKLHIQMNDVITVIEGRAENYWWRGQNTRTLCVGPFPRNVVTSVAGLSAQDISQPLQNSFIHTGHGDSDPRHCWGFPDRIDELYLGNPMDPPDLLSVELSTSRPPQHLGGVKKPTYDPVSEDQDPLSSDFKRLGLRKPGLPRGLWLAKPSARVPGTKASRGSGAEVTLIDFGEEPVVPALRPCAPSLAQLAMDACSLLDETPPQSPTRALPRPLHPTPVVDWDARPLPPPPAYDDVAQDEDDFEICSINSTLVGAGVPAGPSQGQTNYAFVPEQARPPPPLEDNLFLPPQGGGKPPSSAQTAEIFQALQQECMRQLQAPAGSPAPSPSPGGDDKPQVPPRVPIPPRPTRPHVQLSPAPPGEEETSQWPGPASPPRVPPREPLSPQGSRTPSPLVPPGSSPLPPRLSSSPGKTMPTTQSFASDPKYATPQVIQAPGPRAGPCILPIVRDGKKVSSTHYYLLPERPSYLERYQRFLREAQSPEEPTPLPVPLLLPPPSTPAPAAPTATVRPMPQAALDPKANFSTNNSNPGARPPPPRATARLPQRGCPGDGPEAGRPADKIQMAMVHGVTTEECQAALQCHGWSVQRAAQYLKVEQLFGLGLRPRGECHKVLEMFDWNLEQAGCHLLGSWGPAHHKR

BMX = biological target: T1, BMX (Homo sapiens, UniProt P51813); assay: SelectScreen kinase profiling / Z′-Lyte kinase assay
T1 sequence (P51813 1-675): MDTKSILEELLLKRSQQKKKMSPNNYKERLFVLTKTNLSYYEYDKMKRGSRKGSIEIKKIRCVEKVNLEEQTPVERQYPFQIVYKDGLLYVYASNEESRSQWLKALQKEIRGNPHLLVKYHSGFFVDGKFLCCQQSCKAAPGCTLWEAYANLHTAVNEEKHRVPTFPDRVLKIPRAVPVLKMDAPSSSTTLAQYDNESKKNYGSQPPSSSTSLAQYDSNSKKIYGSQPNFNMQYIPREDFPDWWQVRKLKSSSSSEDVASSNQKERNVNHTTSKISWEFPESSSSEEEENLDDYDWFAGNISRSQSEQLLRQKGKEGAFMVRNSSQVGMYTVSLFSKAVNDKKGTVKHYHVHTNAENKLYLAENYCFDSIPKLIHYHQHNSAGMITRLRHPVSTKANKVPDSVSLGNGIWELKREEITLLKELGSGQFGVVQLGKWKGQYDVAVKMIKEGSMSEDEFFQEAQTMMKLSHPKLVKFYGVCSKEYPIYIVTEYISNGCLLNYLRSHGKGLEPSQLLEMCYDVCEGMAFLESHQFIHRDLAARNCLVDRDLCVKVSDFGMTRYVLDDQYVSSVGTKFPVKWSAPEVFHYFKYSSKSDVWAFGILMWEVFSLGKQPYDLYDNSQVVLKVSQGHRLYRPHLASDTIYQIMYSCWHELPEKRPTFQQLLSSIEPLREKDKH

ITK = biological target: T2, ITK (Homo sapiens, UniProt Q08881); assay: as above
T2 sequence (Q08881 1-620): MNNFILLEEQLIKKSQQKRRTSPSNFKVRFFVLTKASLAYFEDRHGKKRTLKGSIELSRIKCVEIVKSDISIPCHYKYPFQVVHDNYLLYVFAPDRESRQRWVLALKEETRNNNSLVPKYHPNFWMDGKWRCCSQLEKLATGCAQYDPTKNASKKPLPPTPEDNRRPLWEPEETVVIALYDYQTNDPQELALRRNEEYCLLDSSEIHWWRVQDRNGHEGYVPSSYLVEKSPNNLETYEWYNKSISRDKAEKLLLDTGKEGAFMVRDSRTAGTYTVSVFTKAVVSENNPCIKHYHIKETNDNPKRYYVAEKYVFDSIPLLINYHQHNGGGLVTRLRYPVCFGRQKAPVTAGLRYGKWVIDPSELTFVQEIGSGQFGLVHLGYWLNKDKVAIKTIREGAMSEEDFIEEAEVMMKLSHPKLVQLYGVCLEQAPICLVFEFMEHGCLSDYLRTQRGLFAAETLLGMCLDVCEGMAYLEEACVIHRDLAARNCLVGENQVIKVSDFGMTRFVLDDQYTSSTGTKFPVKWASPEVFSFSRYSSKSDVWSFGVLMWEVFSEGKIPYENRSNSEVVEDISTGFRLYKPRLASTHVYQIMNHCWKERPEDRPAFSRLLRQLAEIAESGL

inhibition at 1 µM (FLT3): 13%
inhibition at 1 µM (LYN B): 28%
inhibition at 1 µM (TNK2 (ACK)): 4%
inhibition at 1 µM (BMX): 94%
IC50 (BMX; BMX IC50, Z′-Lyte, [ATP] Km app, 1 h incubation, duplicate): 5.7 nM and 5.67 nM
Hillslope (BMX; BMX IC50 curve): 1.56
inhibition at 0.000495 µM (BMX; read-out: % Inhibition Point 1): 6%
inhibition at 0.00152 µM (BMX; read-out: % Inhibition Point 1): 16%
inhibition at 0.00457 µM (BMX; read-out: % Inhibition Point 1): 48%
inhibition at 0.0137 µM (BMX; read-out: % Inhibition Point 1): 78%
inhibition at 0.0412 µM (BMX; read-out: % Inhibition Point 1): 94%
inhibition at 0.123 µM (BMX; read-out: % Inhibition Point 1): 102%
inhibition at 0.37 µM (BMX; read-out: % Inhibition Point 1): 101%
inhibition at 1.11 µM (BMX; read-out: % Inhibition Point 1): 98%
inhibition at 3.33 µM (BMX; read-out: % Inhibition Point 1): 99%
inhibition at 10 µM (BMX; read-out: % Inhibition Point 1): 98%
inhibition at 0.000495 µM (BMX; read-out: % Inhibition Point 2): 10%
inhibition at 0.00152 µM (BMX; read-out: % Inhibition Point 2): 18%
inhibition at 0.00457 µM (BMX; read-out: % Inhibition Point 2): 42%
inhibition at 0.0137 µM (BMX; read-out: % Inhibition Point 2): 83%
inhibition at 0.0412 µM (BMX; read-out: % Inhibition Point 2): 101%
inhibition at 0.123 µM (BMX; read-out: % Inhibition Point 2): 97%
inhibition at 0.37 µM (BMX; read-out: % Inhibition Point 2): 98%
inhibition at 1.11 µM (BMX; read-out: % Inhibition Point 2): 102%
inhibition at 3.33 µM (BMX; read-out: % Inhibition Point 2): 100%
inhibition at 10 µM (BMX; read-out: % Inhibition Point 2): 102%
IC50 (ITK): > 10000 nM
inhibition at 1 µM (ITK): 8%
ITK, BTK/Kinase (ITK; BTK selectivity from IC50 values): > 781 x
Hillslope (ITK; ITK IC50 curve): 1.28
inhibition at 0.00457 µM (ITK; read-out: % Inhibition Point 1): -1%
inhibition at 0.0137 µM (ITK; read-out: % Inhibition Point 1): -4%
inhibition at 0.0412 µM (ITK; read-out: % Inhibition Point 1): -4%
inhibition at 0.123 µM (ITK; read-out: % Inhibition Point 1): -2%
inhibition at 0.37 µM (ITK; read-out: % Inhibition Point 1): 5%
inhibition at 1.11 µM (ITK; read-out: % Inhibition Point 1): 8%
inhibition at 3.33 µM (ITK; read-out: % Inhibition Point 1): 13%
inhibition at 10 µM (ITK; read-out: % Inhibition Point 1): 51%
inhibition at 0.000495 µM (ITK; read-out: % Inhibition Point 2): 7%
inhibition at 0.00152 µM (ITK; read-out: % Inhibition Point 2): -5%
inhibition at 0.00457 µM (ITK; read-out: % Inhibition Point 2): -1%
inhibition at 0.0137 µM (ITK; read-out: % Inhibition Point 2): 1%
inhibition at 0.0412 µM (ITK; read-out: % Inhibition Point 2): -2%
inhibition at 0.123 µM (ITK; read-out: % Inhibition Point 2): 0%
inhibition at 0.37 µM (ITK; read-out: % Inhibition Point 2): 5%
inhibition at 1.11 µM (ITK; read-out: % Inhibition Point 2): 4%
inhibition at 3.33 µM (ITK; read-out: % Inhibition Point 2): 16%
inhibition at 10 µM (ITK; read-out: % Inhibition Point 2): 47%
Structure (SMILES): C=CC(=O)N1CCCC(n2nc(-c3c(C)cc(Oc4ccccc4)cc3C)c3c(N)ncnc32)C1 (stereo in doubt) [Compound 3]
ITK IC50 (ITK; Z′-Lyte, [ATP] Km app, 1 h incubation, duplicate): no observable activities; also recorded: no observable ITK activity
